{"source": "patent US7138543B2", "about": "“Thiolalkyl benzoic acid derivatives” (Guilford Pharmaceuticals Inc., priority 2001, dated 2006)", "key": {"STZ-diabetic rats [1]": {"tested_on": "STZ-diabetic rats", "assay": "Neuropathic pain in STZ model (Hargreaves thermal nociception)", "format": "in vivo, Sprague-Dawley rats", "conditions": "10 mg/kg i.p. daily, started 45 days post-STZ", "description": "In vivo Assay of NAALADase Inhibitors on Neuropathic Pain in STZ Model\nMale Sprague-Dawley rats (200–225 g) were rendered diabetic by intravenous administration of streptozotocin (“STZ”, 70 mg/kg in phosphate buffered saline). Diabetic animals were divided into five groups: one group receiving Compound A (10 mg/kg or 1 mg/kg), Compound D (10 mg/kg or 1 mg/kg) or vehicle. Another group of animals (non-STZ treated) served as non-diabetic controls. Drug/vehicle treatment was started in diabetic animals 45 days post-STZ administration. STZ-induced diabetic rats were tested for sensitivity to a heat source as soon as blood glucose levels rose to 320 mg/dl or above (30 days post STZ). The rats were then acclimated to a Hargreaves apparatus and thermal nociception was monitored using an infrared heat source directed into the dorsal surface of the hindpaw, and the time taken for the animal to remove its paw noted to the nearest 0.1 seconds (see Hargreaves et al., J. Biol. Chem. (1988) 263(36):19392–7 for a description of the experimental method). The intensity of the beam source was adjusted such that the mean latency for control animals (non-STZ treated) was approximately 10 seconds. Each animal was tested 8 times and the mean difference score (between mean non-diabetic control latency and mean diabetic latency) are graphically presented in FIGS. 7A and 7B."}, "STZ-diabetic rats [2]": {"tested_on": "STZ-diabetic rats", "assay": "Diabetic neuropathy in STZ model (motor and sensory nerve conduction velocity)", "format": "in vivo", "description": "In vivo Assay of NAALADase Inhibitors on Diabetic Neuropathy in STZ Model\nMotor and sensory nerve conduction velocity was also measured in STZ-diabetic animals after 4, 8 and 12 weeks of treatment (see De Koning et al., supra, for a description of the experimental method). Briefly, stimulating needle electrodes were inserted close to the sciatic and tibial nerves with recording electrodes being placed subcutaneously over the distal foot muscles, in anesthetized rats."}, "[3]": {"tested_on": "rats with unilateral elevation of intraocular pressure", "assay": "Experimental rat glaucoma (IOP elevation, optic nerve fiber counting)", "format": "in vivo", "conditions": "8 week group", "description": "Protective Effect of NAALADase Inhibitors in Experimental Rat Glaucoma\nAll experiments complied with the Association for Research in Vision and Ophthalmology Statement for the Use of Animals in Ophthalmic and Vision Research. 82 male Brown Norway rats (Rattus norvegicus), each weighing approximately 250 gm, were treated using procedures approved by the Animal Care Committee of the Johns Hopkins University School of Medicine. The rats were housed with a 12 hour light/12 hour dark cycle and fed ad libitum.\nEXPERIMENTAL GLAUCOMA: Unilateral elevation of intraocular pressure (“IOP”) was produced in 56 rats by microinjection of hypertonic saline into episcleral veins, following procedures described in Morrison, J. et al., IOVS (March 1998) 39:526–531. Beginning on the day of IOP elevation, the rats were treated daily with intraperitoneal injections of either a vehicle (23 rats with 50 mM HEPES-buffered saline) or a NAALADase inhibitor (11 rats with 10 mg/kg of Compound A and 22 rats with 10 mg/kg of Compound B). 11 saline treated rats, 11 Compound A treated rats and 11 Compound B treated rats were sacrificed at 8 weeks, and the remaining rats at 12 weeks, after initial IOP elevation.\nOPTIC NERVE COUNTING: The rats were sacrificed by exsanguination under deep pentobarbital anesthesia. They were perfused through the heart with 2% paraformaldehyde/2% glutaraldehyde in 0.1 M phosphate buffer, pH 7.2, and the eyes with attached optic nerves were removed. A cross-section of the optic nerve from both experimental (glaucoma or transection) and control eyes was removed 1.5 mm posterior to the globe, 1 mm in thickness, and post-fixed in 2% osmium tetroxide in buffer. These were processed into epoxy resin, sectioned at 1 micron and stained with toluidine blue.\nThe area of the optic nerve cross-section was measured by outlining its outer border at 10× magnification on an image analysis system (Universal Imaging Corp., Westchester, Pa.) with Synsys digital camera and Metamorph software. Three area measurements were taken and the mean value was determined. To measure the density and fiber diameter distributions, images were captured with a 100× phase contrast objective from 10 different areas of each nerve. These were edited to eliminate non-neural objects and the size of each axon internal to the myelin sheath (its minimum diameter) and the density of axons/square mm were calculated for each image and nerve. The mean density was multiplied by total nerve area to yield fiber number for each nerve. The total fiber number in glaucoma or transection nerves was compared to the normal, fellow eye of each rat to yield a percent loss value. The number of axons counted among the 10 images was an approximately 20% sample of the 80–90,000 axons in normal rat nerves. The person measuring axon number was masked to the protocol conducted on the nerves."}}}
{"smiles": "O=C(O)CCC(CP(=O)(O)Cc1c(F)c(F)c(F)c(F)c1F)C(=O)O", "note": "(stereo not drawn) [Compound A]", "values": [{"measurement": "hyperalgesic response (withdrawal latency difference score)", "setting": "STZ-diabetic rats [1]", "value": "completely reversed"}, {"measurement": "motor and sensory nerve conduction velocities", "setting": "STZ-diabetic rats [2]; 10 mg/kg daily for 4, 8 and 12 weeks, FIGS. 9A and 9B", "value": "tended to improve (increase) both motor and sensory nerve conduction velocities"}, {"measurement": "treatment time at which significant improvement of motor nerve conduction velocity was observed", "setting": "STZ-diabetic rats [2]; 10 mg/kg daily, FIG. 9A", "value": 12, "unit": "weeks"}, {"measurement": "treatment time at which significant improvement of sensory nerve conduction velocity was observed", "setting": "STZ-diabetic rats [2]; 10 mg/kg daily, FIG. 9B", "value": 8, "unit": "weeks"}, {"measurement": "FIBER NUMBER", "setting": "[3]; 10 mg/kg daily intraperitoneal", "value": "79156 ± 2436"}, {"measurement": "PERCENT DIFFERENCE in fiber number between glaucoma and normal eye", "setting": "[3]; positive value indicates fewer fibers in the glaucoma eye", "value": "−1.82 ± 2.92", "unit": "%"}]}
